Laboratory results taken from a melting point compilation (Tetko et al.; mined from patent text by program, amines drawn as free bases though some values may be those of a salt).

Point of comparison: NC1=C(c2ccc(O)cc2)C(=O)c2ccc(O)cc21, melting point 213 °C. Against it:
- Cc1c(NC(=O)c2ccc(C#CC3(O)CCC3)cc2)ccc2cc(CNCC3CCOCC3)n(C)c12 — lower, 202 to 204 °C
- COc1ccc(-n2ccnc2C(c2cc(F)ccc2F)S(=O)(=O)c2ccc(Cl)cc2)cc1 (centres undefined) — lower, 150 to 151 °C
- COc1ccc(-c2cc(=O)c3c(OC)c(I)c(OC)cc3o2)cc1 — lower, 191 to 194 °C
- CC(=O)N=C(N(C)C(C)=O)N(C)C1CCN(c2nc3ccccc3n2Cc2ccc(F)cc2)CC1 — lower, 176 °C
- COC1CCC(O)C(COS(=O)(=O)c2ccc(C)cc2)O1 (centres undefined) — lower, 100 to 102 °C
- O=C(/C=C/c1ccc(C(=O)Nc2cccc(Nc3nc(-c4cccnc4)cs3)c2)cc1)NOC1CCCCO1 (centres undefined) — lower, 158 °C
- CCN1CC(=O)N(CCc2ccccc2)C1=S — lower, 66 to 68 °C
- Cn1nc(O)cc1C(F)F — lower, 115 to 119 °C
- Oc1cc2[nH]c3c(O)c(O)ccc3c2cc1O — higher, > 280 °C
- O=C(CN1CCOCC1)Oc1ccc2c(=O)c3c(oc2c1)C(=Cc1ccccc1)CC3 — lower, 204 to 206 °C
- CS(=O)(=O)Nc1cc(C(c2cc(C#N)ccc2F)S(=O)(=O)c2ccc(Cl)cc2)c(Cl)cn1 (centres undefined) — lower, 118 to 120 °C
- CC(O[Si](C)(C)C(C)(C)C)C1C(=O)NC1C1CCCC(OCCCl)C1O (centres undefined) — lower, 97 to 100 °C
- CCC(C)=NNC(=O)c1cccc2nnsc12 — lower, 159 to 162 °C
- CCOC(=O)CC(=O)C=Cc1cccc([N+](=O)[O-])c1 — lower, 92 to 93 °C
- COc1c(N2CCO[C@@H](CN(C)C)C2)c(F)cc2c(=O)c(C(=O)O)cn(C3CC3)c12 — lower, 146 to 147 °C
- CCCc1nn(CC)c2c(=S)[nH]c(-c3ccccc3OCC)nc12 — lower, 130 to 131 °C
- CN(CCN1CCC(Nc2nc3ccccc3n2Cc2ccc(F)cc2)CC1)c1nccs1 — lower, 143 °C
- CCn1ccc(Nc2cc(Br)cn(C)c2=O)n1 — lower, 165 to 167 °C
- CC(=C1SC(=O)NC1=O)c1ccc(OCCCOc2c(-c3ccc(F)cc3)n(C)c3ccccc3c2=O)c(Cl)c1 — higher, 232 to 234 °C
- Cc1ccc(S(=O)(=O)Nc2cccc(CCC(=O)c3cnc4sc(C)c(C)n34)c2)cc1 — lower, 180 to 181 °C
- CC(C)(C)C#Cc1cc([N+](=O)[O-])ccc1C(=O)O — lower, 170 to 173 °C
- O=C(Nc1ccccc1N1CCc2ccccc21)C1CCCCC1 — lower, 87 to 89 °C
- COCc1c(C=NO)ncc2[nH]c3cccc(Cc4ccccc4Cl)c3c12 — lower, 209 to 212 °C
- CC(C)c1cc(C(C)C)c(C(=O)Nc2ccc(C(=O)O)cc2)[nH]1 — higher, 225 to 226 °C
- CCOC(=O)C1=C(C)NC(C#N)=C(C(=O)OCC)C1c1ccccc1[N+](=O)[O-] (centres undefined) — lower, 126 to 128 °C
- CC(C)(C)c1ccc2c(Cc3cccc4ccccc34)c3cc(C(C)(C)C)ccc3c(Cc3cccc4ccccc34)c2c1 — higher, 285 °C
- COc1cc(-c2cc(=O)c3ccc(OCC4CO4)cc3o2)cc(OC)c1OC (centres undefined) — lower, 187 to 188 °C
- CCN(CC)C(=O)n1ccc(S(=O)(=O)c2ccccc2OC)n1 — lower, 67 to 68 °C
- OCc1cc(C(F)(F)F)ccc1Sc1ccccc1 — lower, 84 °C
- CCCc1nc2c(N)nc3ccccc3c2n1CCCCNS(=O)(=O)c1ccccc1 — lower, 159 to 161 °C
- CCOP(=S)(OCC)Oc1nsc(SCc2ccccc2)n1 — lower, < 50 °C
- Cc1ccccc1C(=O)c1ccc(C(=O)O)o1 — lower, 155 to 157 °C
- Cc1occc1C(=O)Nc1ccc(C(=O)N2Cc3cccn3Cc3ccccc32)cn1 — lower, 210 to 212 °C
- O=C=Nc1ccc(NCc2ccc(F)c(Cl)c2)c(C(F)(F)F)c1 — lower, 144 to 146 °C
- COc1cc(Nc2c(C#N)cnc3cc(/C=C/CCN4CCN(C)CC4)ccc23)c(Cl)cc1Cl — lower, 152 to 154 °C
- CC(=O)C1CCC2C3CCC4CC(O)C(N5CCOC(c6ccccc6)(c6ccccc6)C5)CC4(C)C3C(=O)CC12C (centres undefined) — higher, 248 to 250 °C
- O=C(O)C1C2CCC(C2)C1C(F)(F)F (centres undefined) — lower, 87 to 90 °C
- CC(=O)c1ccc(N(C)Cc2ccccc2)c(S(N)(=O)=O)c1 — lower, 159 to 161 °C
- O=c1ncc(Br)cn1Cc1cccs1 — lower, 188 to 190 °C
- CCOc1cc(N)ccc1-c1ccc(-c2ccc(N)cc2OCC)o1 — lower, 192 to 193 °C
- COc1ccc(-c2nc(C(F)(F)F)c[nH]2)cc1OC1CCCC1 — lower, 157 to 159 °C
- CCOC(=O)c1c(-c2ccccc2)c2ccc(OC)cc2[nH]c1=O — lower, 175 to 177 °C
- CCCCCCCCS(=O)(=O)NCCCCOc1ccc(-n2ccnc2)cc1 — lower, 99 to 100 °C
- O=C1CCC(N2CCN(c3ccccn3)CC2)CC1 — lower, 142 to 144 °C
- CC(C)C1Cc2cc(C=O)sc2C1 (centres undefined) — lower, < 50 °C
- COc1cc2c(cc1-c1cccnc1)-c1c(-c3cccnc3)c3c(n1CC2)C(=O)N(C(C)(C)C)CCC3 — higher, 310 to 312 °C
- CNC(=O)C(Cc1ccc(OC)cc1)NC(=O)C(CC(C)C)C(S)CC(=O)N1CCN(C)CC1 (centres undefined) — lower, 65 to 68 °C
- CC(C)(C)NC(=O)NOCC(O)CN1CCCCC1 (centres undefined) — lower, 71 to 73 °C
